Test results published in US20030096237A1, “Determination of the ability of patients to respond to a tumor treatment” (priority 2000, published 2003).

System: CNCM I-2545
Assay: oligonucleotide array analysis of IFN-α modulated gene expression
Type: cell-based, human
Description: All these cell lines were cultured in RPMI medium supplemented with 10% FCS, glutamine (2 mM), sodium pyruvate (1 mM), non-essential amino acids and HEPES buffer (10 mM) (all from GIBCO Life Sciences, Paisley, UK). When confluent, the cells were passaged by trypsinization.
Cultured melanoma cells were harvested by scraping and total cellular RNA was extracted. 10 μg from each sample were used directly as templates for cDNA synthesis using a commercial kit (Roche Molecular Biochemicals, Rotkreuz, Switzerland). The T7 promoter sequence incorporated into the cDNA synthesis primer allowed template amplification and biotin labeling by in vitro transcription using a commercial kit (Affymetrix, Santa Clara, Calif.). After alkaline heat fragmentation […] was hybridised to the array (Affymetrix, Santa Clara, Calif.) and all subsequent steps were performed following standard procedures as supplied with the arrays. Raw data were collected with a confocal laser scanner (Hewlett Packard, Palo Alto, Calif.) using GeneChip software v3.1 (Affymetrix, Santa Clara, Calif.).
Raw data were normalized based on the total chip signal obtained upon hybridisation of ME15 cell line cDNA. This array was selected because: i) the 5′/3′ intensity ratio of control genes was smaller than 3; ii)>25% of the genes are called “present” by Genechip; iii) the image appearance is homogeneous with low background and no sign of mechanical chip damage.
The normalized average difference (nAD) between the signals of the perfect and of the mismatch probesets for each gene was used as the expression level of a given gene. At least one nAD value in a pairwise comparison of data has to exceed 50 to be included. Based on nAD, change factors related to IFN-α exposure were also calculated. Negative nAD values were set to 20 in order to avoid the calculation of artificially high modifications. In order to exclude artefacts, only genes with robust change factors, greater than 2-fold, were included in the analysis. […] Genes were clustered according to their mode of regulation.
Total cellular RNA was extracted from the sensitive and resistant melanoma cell lines identified above, reverse transcribed and processed for hybridization to an oligonucleotide array (Hu6800FL, PN 900183) containing probe sets derived from 7000 full-length human genes. Expression levels for each gene were calculated as normalized average difference (nAD, see materials and methods).
Patterns of genes expressed in IFN-α sensitive and resistant melanoma cell lines were investigated upon 48 hour culture in the presence of IFN-α. CNCM I-2546 and CNCM I-2545 were studied in detail.
In Table 2 below, CNCM I-2546 and CNCM I-2545 cultured for 48 hours in the absence or in the presence of 100 U/ml IFN-α were used to assay cytokine modulated gene expression as matched with data obtained in fibrosarcoma cells. This analysis yielded six clusters of genes. […] Data are presented as average difference of signal intensity between match and mismatch probesets.
In Table 3 below, CNCM I-2546 and CNCM I-2545 cell lines cultured for 48 hours in the absence or in the presence of 100 U/ml IFN-α were used to identify novel cytokine induced genes whose expression was not found to be modulated in fibrosarcoma cells. Cluster 1 includes genes inducible in the CNCM I-2546 sensitive but not in the CNCM I-2545 resistant cell line. Cluster 2 comprises genes inducible in both lines. Data are presented as average difference of signal intensity between match and mismatch probesets.

[1] = CNCM I-2545, IFN-α 100 U/ml 48 hours

IFN-α
change factor (CF) D28137 bst-2 [1]: 1.38 | change factor (CF) D32050 alanyl-trna synthetase [1]: −0.92 | change factor (CF) D49824 hla-b null allele [1]: −0.97 | change factor (CF) D50914 EST [1]: −2 | change factor (CF) D78132 rheb gene, ras-related gtp binding protein gene [1]: 1.88 | change factor (CF) HG658 major histocompatibility complex, class 1 c [1]: −1.6 | change factor (CF) HG1612 macmarcks [1]: −0.16 | change factor (CF) HG2917 major histocompatibility complex, class i, e [1]: −0.1 | change factor (CF) J00105 beta-2 microglobulin gene [1]: 0.26 | change factor (CF) J00212 leukocyte interferon (ifn-alpha) [1]: −4.3 | change factor (CF) J03909 gamma-interferon-inducible protein (ip-30) [1]: 2.38 | change factor (CF) J04164 interferon-inducible protein 27-sep [1]: 0 | change factor (CF) J04182 lysosomal membrane glycoprotein-1 (lamp1) [1]: 6.33 | change factor (CF) J04444 cytochrome c-1 gene [1]: 1.56 | change factor (CF) K01900 lymphocyte interferon alpha type 201 [1]: −6.8 | change factor (CF) K03515 neuroleukin [1]: −0.17 | change factor (CF) L07633 interferon-gamma [1]: 11.5 | change factor (CF) L13210 mac-2 binding protein [1]: −0.22 | change factor (CF) L35249 vacuolar h + -atpase mr 56,000 subunit (ho57) [1]: 16.85 | change factor (CF) L37043 casein kinase i epsilon [1]: 0.01 | change factor (CF) L40387 thyroid receptor interactor (trip14) [1]: −4.2 | change factor (CF) L42243 ifnar2 gene (interferon receptor) [1]: −2.1 | change factor (CF) M13755 interferon-induced 17-kda/15-kda protein [1]: 0.55 | change factor (CF) M19650 2′,3′-cyclic nucleotide 3prime-phosphodiesterase [1]: −0.38 | change factor (CF) M30818 interferon-induced cellular resistance mediator protein [1]: 0 | change factor (CF) M31013 nonmuscle myosin heavy chain (nmhc) [1]: −0.43 | change factor (CF) M34338 spermidine synthase [1]: −0.7 | change factor (CF) M60784 ul snrnp-specific protein [1]: 2.59 | change factor (CF) M65028 heterogeneous nuclear ribonucleoprotein a/b [1]: 1.29 | change factor (CF) M79462 pml-1 [1]: −9.05 | change factor (CF) M92642 alpha-1 type xvi collagen (col16a1) [1]: 4.75 | change factor (CF) M94880 mhc class i (hla-a*8001) [1]: −0.31 | change factor (CF) M97935 transcription factor isgf-3 [1]: −2.6 | change factor (CF) M98343 amplaxin (ems1) [1]: 2.15 | change factor (CF) S81914 iex-1 = radiation-inducible immediate-early gene [1]: 0.05 | change factor (CF) U01824 glutamate/aspartate transporter [1]: −8.69 | change factor (CF) U09579 melanoma differentiation associated (mda-6) [1]: 0 | change factor (CF) U18009 chromosome 17q21 clone lf113 [1]: −0.59 | change factor (CF) U18018 ela enhancer binding protein (ela-f) [1]: 0.15 | change factor (CF) U22970 16-jun gene, interferon-inducible peptide (6-16) [1]: 0.2 | change factor (CF) U41515 dss1 [1]: 5.15 | change factor (CF) U47025 fetal brain glycogen phosphorylase b [1]: −0.45 | change factor (CF) U50327 protein kinase c substrate 80k-h gene (prkcsh) [1]: −0.7 | change factor (CF) U50648 interferon-inducible rna-dependent protein kinase (pkr) [1]: −1.3 | change factor (CF) U51127 interferon regulatory factor 5 [1]: −1.88 | change factor (CF) U52513 rig-g [1]: −13.45 | change factor (CF) U53830 interferon regulatory factor 7a [1]: −4.15 | change factor (CF) U61263 acetolactate synthase homolog [1]: −0.36 | change factor (CF) U65579 mitochondrial nadh dehydrogenase-ubiquinone [1]: −0.01 | change factor (CF) U65932 extracellular matrix protein 1 (ecm1) [1]: −1.34 | change factor (CF) U69126 fuse binding protein 2 (fbp2) [1]: 0.39 | change factor (CF) U70063 human acid ceramidase [1]: 2.48 | change factor (CF) U72206 guanine nucleotide regulatory factor (lfp40) [1]: −0.47 | change factor (CF) U72882 interferon-induced leucine zipper protein (ifp35) [1]: −3.63 | change factor (CF) U78525 human eukaryotic translation initiation factor (eif3) [1]: 1.25 | change factor (CF) U91316 acyl-coa thioester hydrolase [1]: 0.69 | change factor (CF) X04412 plasma gelsolin [1]: 0 | change factor (CF) X07730 prostate specific antigen [1]: −1.75 | change factor (CF) X15949 interferon regulatory factor-2 (irf-2) [1]: 0 | change factor (CF) X57351 1-8d gene from interferon-inducible gene family [1]: 0.09 | change factor (CF) X57522 ring4 cdna [1]: −1.92 | change factor (CF) X67325 p27 [1]: 0 | change factor (CF) X70848 protein phosphatase 1, catalytic subunit [1]: 8.42 | change factor (CF) X76538 mpv17 [1]: −0.31 | change factor (CF) X90846 mixed lineage kinase 2 [1]: −4.95 | change factor (CF) X95325 dna binding protein a variant [1]: −1.51 | change factor (CF) X96401 rox protein [1]: −1.76 | change factor (CF) Y00264 amyloid a4 precursor [1]: 0.09 | change factor (CF) Z26491 gene catechol o-methyltransferase [1]: −0.31 | change factor (CF) Z47055 farnesyl pyrophosphate synthetase like [1]: 1.02 | change factor (CF) Z56281 interferon regulatory factor 3 [1]: −2 | nAD D28137 bst-2 (Table 3, CNCM I-2545 (+) IFN-α 100 U/ml 48 hours, (−) 37): 88 | change factor (CF) D28137 bst-2 (Table 3, CNCM I-2545, IFN-α 100 U/ml 48 hours): 1.38
